Read-outs that look alike come from different tables or passages of the source. No end group written: not given here.
Experiments:
ROS 17/2.8 osteoblasts = conditions: for increase over the basal level of osteocalcin: 48 hr incubation, Vitamin D3 at 10 nM, internal controls
Experimental: Cell culture: ROS 17/2.8 osteoblasts were routinely cultured in Ham's F-12 medium containing 5% FBS, 25 rmM HEPES (pH 7.4), 1.1 mM CaCl2, penicillin (10 U/ml) and streptomycin (10 ug/ml). The cells were subcultured twice a week using 0.04% trypsin containing 5 mM EDTA to detach the cells.
For the assay, 30,000 cells were plated per well in 24-well multidishes in 0.5 ml of HAM's F-12 medium containing 1% FBS and allowed to adhere for 3-4 hr at 37° C. in a humidified incubator with 5% CO2. Increasing concentrations of test compounds ([…]) were then added to the wells (duplicate cultures per concentration tested) and the incubation continued for an additional 48 hr. At the end of the incubation, cultures supernatants were removed and assayed for osteocalcin levels using a rat RIA as per the manufacturer's instructions. The lower limit of detection in this assay was 0.3 ng/ml. In every experiment, Vitamin D3 (10 nM) and the peptide cyclo[Arg-Gly-Asp-D-Phe-Val] were tested as an internal controls. […] Activity for each compound was expressed as the EC50 from the dose-response curve.

MC3T3-E1 osteoblasts = assay: Mineralization of MC3T3 osteoblasts; type: cell-based, murine; conditions: 25 uM
Experimental: Mineralization of MC3T3 osteoblasts
To characterize the temporal sequence of osteoblast differentiation, 30,000 cells were plated/well in 24-well multidishes and grown for periods ranging from 3-26 days in a-MEM medium (GIBCO) containing 10% fetal bovine serum (V/V), penicillin (100 U/ml) and streptomycin (100 ug/ml), with or without supplementation with 5 mM β-glycerophosphate and 100 uM ascorbic acid in the presence or absence of RGD compounds.
Mineralization of cells was assessed by calcium isotope accumulation. Cells were incubated for 48 h in medium containing 0.5 uCi/mi of ^45CaCl2 at various time points after seeding. Subsequently, the monolayers were washed twice with PBS using 1 ml/wash. Cells were harvested and digested in 0.1 N NaOH and aliquots were counted by liquid scintillation counting using a Beckman 5500 scintillation counter.
Calcified nodules in actively mineralizing cultures were visualized by staining cell monolayers with Alizarin-Red-S (Sigma Chemical Co, St Louis, Mo.). Cell cultures were washed twice with PBS, fixed for 10 min in 50 percent ethanol, rehydrated with 1 ml of distilled water for 5 min and then stained for 1-3 min with 200 uL of 1 percent Alizarin Red S (aqueous). The monolayers were then washed extensively and very carefully using 1 ml H2O per wash. Calcified nodules which appeared a bright red color were identified by light microscopy.
To monitor the differentiation of cells to the mature osteoblast type, alkaline phosphatase activity was determined in cell lysates using the colorimetric assay. Cells were washed twice with PBS using 1 ml/wash. Subsequently, the monolayers were transferred to ice and cells lysed in 0.2 ml of 0.1% TX-100. […] The reactions were stopped with the addition of 100 uL of ice cold 0.25 N NaOH to each reaction and absorbance was read at 410 nm. […] Alkaline phosphatase activity was calculated as umol of substrate (p-nitrophenol) released/mg protein/min.
Osteocalcin levels in the supernatants were determined at various time points during the assay using a mouse RIA as per the manufacturers instructions. […]

CN1Cc2cc(C(=O)NCc3nc4ccccc4[nH]3)ccc2NC(CC(=O)O)C1=O (racemic) [7-[(((2-benzimidazolyl)methyl)amino)carbonyl]-2,3,4,5-tetrahydro4-methyl-3-oxo-1H-1,4-benzodiazepine-2-acetic acid]
stimulates release of osteocalcin (in words) (ROS 17/2.8 osteoblasts): osteocalcin-releasing

C=C1CC[C@H](O)C/C1=C/C=C1\CCC[C@]2(C)[C@@H]([C@H](C)CCCC(C)C)CC[C@@H]12 [Vitamin D3]
increase over the basal level of osteocalcin (ROS 17/2.8 osteoblasts): two to three fold increase

CC(C)[C@@H]1NC(=O)[C@@H](Cc2ccccc2)NC(=O)[C@H](CC(=O)O)NC(=O)CNC(=O)[C@H](CCCNC(=N)N)NC1=O [cyclo[Arg-Gly-Asp-D-Phe-Val]]
stimulates release of osteocalcin (in words) (ROS 17/2.8 osteoblasts): stimulate the release of osteocalcin | EC50 (ROS 17/2.8 osteoblasts; 48 h): 740 nM | increase over the basal level of osteocalcin (ROS 17/2.8 osteoblasts): two to three fold increase | stimulates release of osteocalcin (in words) (ROS 17/2.8 osteoblasts; listed as cyclo(Arg-Gly-Asp-D-Phe-Val)): osteocalcin-releasing | 45Ca uptake (MC3T3-E1 osteoblasts): increased calcium uptake | alkaline phosphatase activity (MC3T3-E1 osteoblasts): enhanced alkaline phosphatase activity | calcification nodules upon Alizarin-Red staining (MC3T3-E1 osteoblasts): showed calcification nodules upon Alzirin staining

Benzyl-(N-methyl)Arg-Gly-Asp-NH-(2 or 4 chloro)Ph
stimulates release of osteocalcin (in words) (ROS 17/2.8 osteoblasts): stimulate the release of osteocalcin

Benzyl-(N-methyl)Arg-Gly-Asp-NHPh
stimulates release of osteocalcin (in words) (ROS 17/2.8 osteoblasts): stimulate the release of osteocalcin

Gly-Arc-Gly-Asp-Ser-OH (GRGDS-OH)
stimulates release of osteocalcin (in words) (ROS 17/2.8 osteoblasts): stimulate the release of osteocalcin

Source: patent publication US20020032187A1, “Method for stimulating bone formation” (SmithKline Beecham Corporation, priority 1996, published 2002)
